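Compound exposure: 48 hours, 5 concentrations, 96-well plates. TGI marks complete inhibition of growth.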
Experiments:
Assay in all cases: NCI-60 cell line screen, 48 h
NCI-H460 lung = system: NCI-H460 lung
EKVX NSCLC = system: EKVX NSCLC
SK-MEL-28 melanoma = system: SK-MEL-28 melanoma
RXF-631 renal = system: RXF-631 renal
HT29 colon = system: HT29 colon
HCT-116 colon = system: HCT-116 colon
OVCAR-8 ovarian = system: OVCAR-8 ovarian
OVCAR-3 ovarian = system: OVCAR-3 ovarian
UO-31 renal = system: UO-31 renal
M14 melanoma = system: M14 melanoma
LOX IMVI melanoma = system: LOX IMVI melanoma
SR leukemia = system: SR leukemia
K-562 leukemia = system: K-562 leukemia
SK-MEL-5 melanoma = system: SK-MEL-5 melanoma
SF-268 CNS = system: SF-268 CNS
HCC-2998 colon = system: HCC-2998 colon
NCI-H226 lung = system: NCI-H226 lung
SF-295 CNS = system: SF-295 CNS
SK-OV-3 ovarian = system: SK-OV-3 ovarian
IGROV1 ovarian = system: IGROV1 ovarian
UACC-62 melanoma = system: UACC-62 melanoma
OVCAR-4 ovarian = system: OVCAR-4 ovarian
SNB-78 CNS = system: SNB-78 CNS
M19-MEL melanoma = system: M19-MEL melanoma
SW-620 colon = system: SW-620 colon
TK-10 renal = system: TK-10 renal
RXF 393 renal = system: RXF 393 renal
HOP-62 NSCLC = system: HOP-62 NSCLC
SK-MEL-2 melanoma = system: SK-MEL-2 melanoma
NCI-H522 lung = system: NCI-H522 lung
SNB-75 CNS = system: SNB-75 CNS
CCRF-CEM leukemia = system: CCRF-CEM leukemia
SNB-19 CNS = system: SNB-19 CNS
COLO 205 colon = system: COLO 205 colon
HCT-15 colon = system: HCT-15 colon
RPMI-8226 leukemia = system: RPMI-8226 leukemia
HL-60(TB) leukemia = system: HL-60(TB) leukemia
A549 NSCLC = system: A549 NSCLC
KM12 colon = system: KM12 colon
786-0 renal = system: 786-0 renal
U251 CNS = system: U251 CNS
SF-539 CNS = system: SF-539 CNS
DMS 273 small cell lung = system: DMS 273 small cell lung
ACHN renal = system: ACHN renal
MOLT-4 leukemia = system: MOLT-4 leukemia
DLD-1 colon = system: DLD-1 colon
LXFL 529 NSCLC = system: LXFL 529 NSCLC
MALME-3M melanoma = system: MALME-3M melanoma
UACC-257 melanoma = system: UACC-257 melanoma
NCI-H23 lung = system: NCI-H23 lung
SN12C renal = system: SN12C renal
A498 renal = system: A498 renal
HOP-92 NSCLC = system: HOP-92 NSCLC
KM20L2 colon = system: KM20L2 colon
CAKI-1 renal = system: CAKI-1 renal
OVCAR-5 ovarian = system: OVCAR-5 ovarian
DMS 114 small cell lung = system: DMS 114 small cell lung
XF 498 CNS = system: XF 498 CNS
HOP-18 NSCLC = system: HOP-18 NSCLC

Measured: TGI

COC(=O)CCC1CCc2c(OC)ccc(O)c2C1=O (stereo not given)
84.1 µM: NCI-H226 lung
not listed: HOP-92 NSCLC | KM20L2 colon | CAKI-1 renal | OVCAR-5 ovarian | DMS 114 small cell lung | XF 498 CNS | HOP-18 NSCLC
> 100 µM: all other assays above

C[N+](C)(C)CC(=O)N/N=C(/Cc1nc2c3c(ccc2[nH]c1=O)C(=O)c1ccccc1C3=O)C(=O)Nc1ccc(Cl)c(Cl)c1
87 µM: CAKI-1 renal
47.2 µM: UO-31 renal
99.8 µM: HOP-92 NSCLC
not listed: LOX IMVI melanoma | NCI-H226 lung | SNB-78 CNS | SNB-75 CNS | SNB-19 CNS | HCT-15 colon | U251 CNS | DMS 273 small cell lung | LXFL 529 NSCLC | XF 498 CNS | HOP-18 NSCLC
> 100 µM: all other assays above

CCC(C(=O)O)c1ccc(OCc2ccccc2)cc1 (stereo not given)
not listed: RXF-631 renal | OVCAR-8 ovarian | M19-MEL melanoma | HCT-15 colon | 786-0 renal | HOP-18 NSCLC
> 100 µM: all other assays above

O=C(CP(=O)(O)O)c1cccs1
not listed: RXF-631 renal | SR leukemia | NCI-H226 lung | OVCAR-4 ovarian | RXF 393 renal | MOLT-4 leukemia | XF 498 CNS
> 100 µM: all other assays above

From PubChem BioAssay (NCI)
